Measurements reported in BindingDB's records for doi:10.1016/j.bmcl.2020.126965 (Australian National University, 2020).

Target: Nonstructural protein 3 (Zika virus, UniProt A0A024AXB9)
Experiment: Binding affinity to Zika virus NS2B-NS3 protease

Nonstructural protein 3, sequence (A0A024AXB9 whole entry): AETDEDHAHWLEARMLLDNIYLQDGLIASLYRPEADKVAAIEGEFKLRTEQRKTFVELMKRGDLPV

EC50: 1.93 µM
Structure (SMILES): CC1=CCC(C(=O)/N=C2\CC=C(S(=O)(=O)O)c3cc(S(=O)(=O)O)cc(S(=O)(=O)O)c32)=C/C1=N/C(=O)C1=CC=C/C(=N\C(=O)/N=C2\C=CC=C(C(=O)/N=C3/CC(C(=O)/N=C4\CC=C(S(=O)(=O)O)c5cc(S(=O)(=O)O)cc(S(=O)(=O)O)c54)=CC=C3C)C2)C1
